14 molecules from ChEMBL document CHEMBL6092218 (J Med Chem, 2024) can be followed below.

For orientation: Papp means the rate of passage across a membrane or cell layer, normalised by area and donor concentration. A word on the IC50: it is the concentration needed to halve the response being measured. High values mean lower potency, low ones higher potency. A word on the bioavailability: it is dose-corrected exposure relative to a reference, in per cent. Read a high bioavailability as much systemic uptake. Usually CL/F stands for clearance divided by bioavailability, as obtained after extravascular dosing. As usually defined, the half-life is how long it takes for the measured level to halve. Read a high half-life as slow decline.

Active and inactive are the calls of the source. The rule behind the calls is not given here.

The nature of data set [1]: Apparent permeability of compound in dog RRCK cells measured after 1.5 hrs by LC-MS/MS analysis. The conditions noted are these: MDCK.
The nature of data set [2]: Metabolic stability in human liver microsomes assessed as apparent intrinsic clearance at 1 uM measured upto 60 mins in presence of NADPH by LC-MS/MS analysis. It counts as ADME, Microsome. The conditions noted are these: read-out: CLH. In general terms: Liver microsomes are a subcellular fraction often used to study metabolism.
For another data set, the target named is Cytochrome P450 3A4 (Homo sapiens, UniProt P08684). Put plainly: Inhibition of CYP3A4 in human liver microsomes using midazolam as substrate incubated for 4 mins by LC-MS/SM analysis.
Sequence of Cytochrome P450 3A4 (P08684 whole entry): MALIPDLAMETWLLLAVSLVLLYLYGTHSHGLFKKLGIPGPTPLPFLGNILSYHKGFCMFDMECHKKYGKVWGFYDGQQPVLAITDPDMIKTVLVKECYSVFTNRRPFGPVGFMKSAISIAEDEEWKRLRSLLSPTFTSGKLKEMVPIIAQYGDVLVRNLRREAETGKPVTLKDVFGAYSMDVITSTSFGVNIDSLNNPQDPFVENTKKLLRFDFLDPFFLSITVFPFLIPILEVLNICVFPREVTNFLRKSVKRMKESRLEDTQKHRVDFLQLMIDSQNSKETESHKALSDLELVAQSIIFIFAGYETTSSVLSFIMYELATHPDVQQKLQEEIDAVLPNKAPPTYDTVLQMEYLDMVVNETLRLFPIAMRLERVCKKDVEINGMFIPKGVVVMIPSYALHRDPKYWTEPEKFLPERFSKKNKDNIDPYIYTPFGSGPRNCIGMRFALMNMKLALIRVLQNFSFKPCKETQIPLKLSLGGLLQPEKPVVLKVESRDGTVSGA
The subject of data set [3] is MIA PaCa-2. Nature of the data set: Antiproliferative activity against human MIA PaCa-2 cells incubated for 6 days by CyQUANT cell proliferation assay. It counts as functional, cell-based. The conditions noted are these: MIA PaCa-2, 144 h.
Data set [4] in a line: Bioavailability in mouse at 30 mg/kg, po measured upto 24 hrs by LC-MS/MS analysis. It counts as ADME, organism-based. Conditions: in vivo.
Data set [5] in a line: Volume of distribution at steady state in mouse at 30 mg/kg, po measured upto 24 hrs by LC-MS/MS analysis. It counts as ADME, organism-based. The conditions noted are these: in vivo.
Data set [6] in a line: Clearance in mouse blood at 30 mg/kg, po measured upto 24 hrs by LC-MS/MS analysis. In kind it is ADME, organism-based. Conditions: whole blood.
A short description of data set [7]: Half-life in mouse at 30 mg/kg, po measured upto 24 hrs by LC-MS/MS analysis. Conditions: in vivo. In kind it is ADME, organism-based.
The subject of data set [8] is MIA PaCa-2. Put plainly: Antitumor activity against human MIA PaCa-2 cells xenografted in NSG mouse assessed as tumor growth inhibition at 15 mg/kg, po qd measured after 24 days by caliper method. Conditions: MIA PaCa-2, 576 h, time 24 day, read-out: TGI. It counts as functional.
For data set [9], the system named is MIA PaCa-2. Nature of the data set: Antitumor activity against human MIA PaCa-2 cells xenografted in NSG mouse assessed as tumor growth inhibition at 30 mg/kg, po qd measured after 24 days by caliper method. In kind it is functional. The conditions noted are these: MIA PaCa-2, 576 h, time 24 day, read-out: TGI.
The subject of data set [10] is MIA PaCa-2. Put plainly: Antitumor activity against human MIA PaCa-2 cells xenografted in NSG mouse assessed as tumor growth inhibition at 10 mg/kg, po bid measured after 24 days by caliper method. Conditions: MIA PaCa-2, 576 h, time 24 day, read-out: TGI. In kind it is functional. In general terms: A xenograft is tissue or cells of one species grown in another, often human tumour cells in immunodeficient mice.

Data set [11] relates to MIA PaCa-2. Put plainly: Antitumor activity against human MIA PaCa-2 cells xenografted in NSG mouse assessed as tumor growth inhibition at 15 mg/kg, po bid measured after 24 days by caliper method. The conditions noted are these: MIA PaCa-2, 576 h, time 24 day, read-out: TGI. It counts as functional.
Data set [12] deals with MIA PaCa-2. Put plainly: Antitumor activity against human MIA PaCa-2 cells xenografted in po dosed NSG mouse assessed as reduction in tumor volume measured after 24 days by caliper method. It counts as functional, organism-based. Conditions: time 24.0 day.
For data set [13], the system named is MIA PaCa-2. Put plainly: Antitumor activity against human MIA PaCa-2 cells xenografted in NSG mouse assessed as tumor stasis at 15 mg/kg, po BID measured after 24 days. In kind it is functional, organism-based. Conditions: time 24.0 day.
Data set [14] deals with MIA PaCa-2. Put plainly: Antitumor activity against human MIA PaCa-2 cells xenografted in NSG mouse assessed as tumor stasis at 30 mg/kg, po qd measured after 24 days. Conditions: time 24.0 day. In kind it is functional, organism-based.
For data set [15], the system named is MIA PaCa-2. Nature of the data set: Antitumor activity against human MIA PaCa-2 cells xenografted in NSG mouse assessed as time duration of coverage of MIA PaCa-2 IC50 in plasma at 15 mg/kg, po qd. In kind it is functional.
The subject of data set [16] is MIA PaCa-2. Nature of the data set: Antitumor activity against human MIA PaCa-2 cells xenografted in NSG mouse assessed as time duration of coverage of MIA PaCa-2 IC50 in plasma at 30 mg/kg, po qd. In kind it is functional.
For data set [17], the system named is MIA PaCa-2. Nature of the data set: Antitumor activity against human MIA PaCa-2 cells xenografted in NSG mouse assessed as time duration of coverage of MIA PaCa-2 IC50 in plasma at 10 mg/kg, po bid. In kind it is functional.
Data set [18] concerns MIA PaCa-2. Put plainly: Antitumor activity against human MIA PaCa-2 cells xenografted in NSG mouse assessed as time duration of coverage of MIA PaCa-2 IC50 in plasma at 15 mg/kg, po bid. It counts as functional.
Data set [19] deals with MIA PaCa-2. Nature of the data set: Antitumor activity against human MIA PaCa-2 cells xenografted in NSG mouse assessed as time duration of coverage of MIA PaCa-2 IC90 in plasma at 15 mg/kg, po qd. It counts as functional.
In data set [20] the test system is MIA PaCa-2. Nature of the data set: Antitumor activity against human MIA PaCa-2 cells xenografted in NSG mouse assessed as time duration of coverage of MIA PaCa-2 IC90 in plasma at 30 mg/kg, po qd. It counts as functional.
For data set [21], the system named is MIA PaCa-2. Nature of the data set: Antitumor activity against human MIA PaCa-2 cells xenografted in NSG mouse assessed as time duration of coverage of MIA PaCa-2 IC90 in plasma at 10 mg/kg, po bid. In kind it is functional.
In data set [22] the test system is MIA PaCa-2. Nature of the data set: Antitumor activity against human MIA PaCa-2 cells xenografted in NSG mouse assessed as time duration of coverage of MIA PaCa-2 IC90 in plasma at 15 mg/kg, po bid. In kind it is functional.
The nature of data set [23]: Toxicity in NSG mouse xenografted in with human MIA PaCa-2 cells assessed as body weight loss at 15 to 30 mg/kg, po qd […]. It counts as organism-based. Conditions: in vivo, dose 15-30 mg/kg.
A short description of data set [24]: Toxicity in NSG mouse xenografted in with human MIA PaCa-2 cells assessed as body weight loss at 10 to 15 mg/kg, po bid […]. Conditions: in vivo, dose 10-15 mg/kg. It counts as organism-based.

With `Cc1cn(C)nc1Nc1cc2cc(C3CCc4nccn43)nc(N)c2cn1` (centres undefined), the apparent permeability coefficient (Papp) at 1.5 h in data set [1] worked out at 44.4 ×10⁻⁶ cm/s. Moreover, the microsomal CLint at 1 µM in data set [2] was found to be 28.6 µL/min/mg. For the same molecule, at Cytochrome P450 3A4, the IC50 is more than 22.4 µM.
In the case of `Cc1cn(C)nc1Nc1cc2cc(-c3cn[nH]c3C)nc(N)c2cn1`, the Papp at 1.5 h in data set [1] worked out at 10.8 ×10⁻⁶ cm/s. In addition, the microsomal CLint at 1 µM in data set [2] was found to be 31.8 µL/min/mg. On Cytochrome P450 3A4, this molecule had an IC50 of 14.5 µM.
As to `Cn1nncc1-c1cc2cc(Nc3nn(C)c4c3[C@@H]3CC[C@H]4N(C4CCC4)C3)ncc2c(N)n1`, the Papp at 1.5 h in [1] was 5.2 ×10⁻⁶ cm/s. Further, the microsomal CLint at 1 µM in data set [2] was 201 µL/min/mg.
As for `CCn1nc(Nc2cc3cc(-c4cnnn4C)nc(N)c3cn2)c2c1[C@@H]1CC[C@H]2C(=O)N1C1CCC1`, the Papp at 1.5 h in data set [1] worked out at 5.2 ×10⁻⁶ cm/s. For the same molecule, the microsomal CLint at 1 µM in data set [2] amounted to 76.8 µL/min/mg.
In the case of `Cc1cn(C)nc1Nc1cc2cc(-c3cnnn3C)nc(N)c2cn1`, the microsomal CLint at 1 µM in [2] was determined as 15.3 µL/min/mg.
Consider `Cn1nncc1-c1cc2cc(Nc3cc(C(C)(C)N)ccn3)ncc2c(N)n1`, for which, in [1], the apparent permeability coefficient (Papp) at 1.5 h came out at 1.7 ×10⁻⁶ cm/s. Besides, the microsomal CLint at 1 µM in data set [2] was less than 7 µL/min/mg.
The like results for `Cn1nncc1-c1cc2cc(Nc3cc(C(C)(C)O)ccn3)ncc2c(N)n1` were, in that order, 13.3 ×10⁻⁶ cm/s and less than 7 µL/min/mg.
As for `Cc1cn(C)nc1Nc1cc2cc(-c3cncn3C)nc(N)c2cn1`, the microsomal CLint at 1 µM in data set [2] came out at 8.2 µL/min/mg.
As for `CC[C@@](C)(N)c1ccnc(Nc2cc3cc(-c4cnnn4C)nc(N)c3cn2)c1`, the apparent permeability coefficient (Papp) at 1.5 h in data set [1] was found to be 6.4 ×10⁻⁶ cm/s. Also, in data set [2], the microsomal CLint at 1 µM was less than 7 µL/min/mg. In the data set on MIA PaCa-2 [3], this molecule gave a concentration for half-maximal inhibition (IC50) of 6.5 nM. In [4], this molecule returned a bioavailability of 3%. For the same molecule, the Vdss in data set [5] is 2.8 L/kg. This molecule also displayed an apparent clearance (CL/F) in data set [6] of 49.4 mL/min/kg. Also, the half-life in [7] is 228 min.
`CCC(N)(CC)c1ccnc(Nc2cc3cc(-c4cnnn4C)nc(N)c3cn2)c1`: in [1], the apparent permeability (Papp) at 1.5 h was 11.1 ×10⁻⁶ cm/s. The microsomal CLint at 1 µM in data set [2] was 41.1 µL/min/mg. The same molecule yielded an IC50 in the data set on MIA PaCa-2 [3] of 3 nM. The same molecule returned a bioavailability in data set [4] of 96%. Further, in data set [5], the Vdss was 4.9 L/kg. This molecule came in with an apparent clearance (CL/F) in [6] of 109 mL/min/kg. Also, the half-life in data set [7] is 720 min. The inhibition in vivo at 15 mg/kg in the data set on MIA PaCa-2 [8] turned out to be 35%; in the data set on MIA PaCa-2 [11], 103%. For the same molecule, in the data set with MIA PaCa-2 [9], the inhibition in vivo at 30 mg/kg turned out to be 106%. Further, the inhibition in vivo at 10 mg/kg with MIA PaCa-2 [10] turned out to be 58%. Further, the Activity entry with MIA PaCa-2 [12] is “Dose-dependent-effect”; in data set [23] it was “Non-toxic”; in [24], “Non-toxic”. Further, the outcome with MIA PaCa-2 [13] and in the data set on MIA PaCa-2 [14] was Active. In addition, the “T>IC50” value was found to be 15 h in the data set with MIA PaCa-2 [15], 24 h with MIA PaCa-2 [16], 21 h in the data set on MIA PaCa-2 [17] and 24 h in the data set on MIA PaCa-2 [18]. Also, the “T>IC90” value in the data set on MIA PaCa-2 [19] came to 9 h; in the data set with MIA PaCa-2 [20], 16 h; with MIA PaCa-2 [21] it was 16 h; in the data set on MIA PaCa-2 [22], 19 h.
In the case of `CCC(N)(CC)c1ccnc(Nc2cc3cc(N4CCOC4=O)nc(N)c3cn2)c1`, the apparent permeability coefficient (Papp) at 1.5 h in [1] is 12.3 ×10⁻⁶ cm/s. Also, the microsomal CLint at 1 µM in data set [2] worked out at 19.4 µL/min/mg. In the data set on MIA PaCa-2 [3], this molecule registered a half-maximal inhibitory concentration (IC50) of 12.8 nM.
Take `Cc1cn(C)nc1Nc1cc2cc(-c3sncc3C)nc(N)c2cn1`: the microsomal CLint at 1 µM in data set [2] amounted to 189 µL/min/mg.
Still for that read-out and setting: next, `Cc1cn(C)nc1Nc1cc2cc(-c3cnccn3)nc(N)c2cn1`: 21.2 µL/min/mg.
In the case of `CC[C@](C)(N)c1ccnc(Nc2cc3cc(-c4cnnn4C)nc(N)c3cn2)c1`, the Papp at 1.5 h in [1] was determined as 5.6 ×10⁻⁶ cm/s. Further, the microsomal CLint at 1 µM in data set [2] was less than 7 µL/min/mg. Besides, it took 14.5 nM to reach half-maximal inhibition in the data set with MIA PaCa-2 [3] (IC50). This molecule also showed a bioavailability in data set [4] of 7%. The Vdss in data set [5] came out at 3.2 L/kg. The molecule further gave a CL/F in data set [6] of 124 mL/min/kg. The half-life in data set [7] is 36 min.
